Assay results published in paper PMC10914734 (Signal Transduction and Targeted Therapy, 2024).
Read-outs that look alike come from different tables or passages of the source.

System: SARS-CoV-2 XBB 1.16 variant
Set-up: species or system K18-hACE2 mice
Details: mouse; for Decrease of lung viral load (viral RNA copies) compared to the vehicle group: in vivo

Compound	Effect against SARS-CoV-2 XBB 1.16 variant in vivo (in words)	Decrease of lung viral load (viral RNA copies) compared to the vehicle group (10 mg/kg) [log10 units]	Decrease of lung viral load (viral RNA copies) compared to the vehicle group (20 mg/kg) [log10 units]
O=C(NCc1ccccc1)C(=O)[C@H](C[C@@H]1CCCNC1=O)NC(=O)[C@H](Cc1ccc(F)cc1)NC(=O)c1cc2ccccc2o1 [14a, N-((S)-1-(((S)-4-(benzylamino)-3,4-dioxo-1-((S)-2-oxopiperidin-3-yl)butan-2-yl)amino)-3-(4-fluorophenyl)-1-oxopropan-2-yl)benzofuran-2-carboxamide]	potent effect	2.0	2.6
O=C(NCc1ccccc1)C(=O)[C@H](C[C@@H]1CCCNC1=O)NC(=O)[C@H](CC1CCCCC1)NC(=O)c1cc2ccccc2o1 [14b, N-((S)-1-(((S)-4-(benzylamino)-3,4-dioxo-1-((S)-2-oxopiperidin-3-yl)butan-2-yl)amino)-3-cyclohexyl-1-oxopropan-2-yl)benzofuran-2-carboxamide]	potent effect		
